System: 996289-038-R-J1-PDC spheroid viability
Assay: Anticancer human tumor 996289-038-R-J1-PDC patient-derived colon adenocarcinoma cell line growth inhibition [PI3K]
Conditions: spheroids with HUVEC and MSC; for IC50: curve of first compound; for viability, T/C: stronger effect = lower value
In short: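 Tumor cells were combined with HUVEC and MSCs into spheroids, then dosed with PI3K-inhibitor combinations over half-log ranges capped near clinical Cmax or 10 microM.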
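Also: spheroids exposed to compounds for seven days before viability read.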
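For viability, T/C in this document: luminescence used as a proxy for viable cell amount; percent viability relative to DMSO vehicle control as 100%.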

IC50 (second compound 0.0316 µM): > 10 µM | IC50 (second compound 0.1 µM): > 10 µM | IC50 (second compound 0.316 µM): > 10 µM | IC50 (second compound 1 µM): > 10 µM | IC50 (second compound 3.16 µM): > 10 µM | IC50 (second compound 10 µM): > 10 µM
SMILES: CC(Cn1ccc(-c2ccc(C#N)c(Cl)c2)n1)NC(=O)c1cc(C(C)O)[nH]n1 (configuration not stated) + CC(Nc1ncnc2nc[nH]c12)c1cc2cccc(Cl)c2c(=O)n1-c1ccccc1
viability, T/C (second compound 0.0316 µM, first compound 0.0316 µM): 109% | viability, T/C (second compound 0.0316 µM, first compound 0.1 µM): 89.9% | viability, T/C (second compound 0.0316 µM, first compound 0.316 µM): 108% | viability, T/C (second compound 0.0316 µM, first compound 1 µM): 110% | viability, T/C (second compound 0.0316 µM, first compound 3.16 µM): 106% | viability, T/C (second compound 0.0316 µM, first compound 10 µM): 101% | viability, T/C (second compound 0.1 µM, first compound 0.0316 µM): 95.2% | viability, T/C (second compound 0.1 µM, first compound 0.1 µM): 97.3% | viability, T/C (second compound 0.1 µM, first compound 0.316 µM): 102% | viability, T/C (second compound 0.1 µM, first compound 1 µM): 101% | viability, T/C (second compound 0.1 µM, first compound 3.16 µM): 110% | viability, T/C (second compound 0.1 µM, first compound 10 µM): 91.5% | viability, T/C (second compound 0.316 µM, first compound 0.0316 µM): 105% | viability, T/C (second compound 0.316 µM, first compound 0.1 µM): 99.2% | viability, T/C (second compound 0.316 µM, first compound 0.316 µM): 105% | viability, T/C (second compound 0.316 µM, first compound 1 µM): 93.9% | viability, T/C (second compound 0.316 µM, first compound 3.16 µM): 113% | viability, T/C (second compound 0.316 µM, first compound 10 µM): 91.3% | viability, T/C (second compound 1 µM, first compound 0.0316 µM): 95.7% | viability, T/C (second compound 1 µM, first compound 0.1 µM): 96.2% | viability, T/C (second compound 1 µM, first compound 0.316 µM): 97.3% | viability, T/C (second compound 1 µM, first compound 1 µM): 99.3% | viability, T/C (second compound 1 µM, first compound 3.16 µM): 102% | viability, T/C (second compound 1 µM, first compound 10 µM): 106% | viability, T/C (second compound 3.16 µM, first compound 0.0316 µM): 91.6% | viability, T/C (second compound 3.16 µM, first compound 0.1 µM): 92.7% | viability, T/C (second compound 3.16 µM, first compound 0.316 µM): 96.7% | viability, T/C (second compound 3.16 µM, first compound 1 µM): 90.6% | viability, T/C (second compound 3.16 µM, first compound 3.16 µM): 91.9% | viability, T/C (second compound 3.16 µM, first compound 10 µM): 84.7% | viability, T/C (second compound 10 µM, first compound 0.0316 µM): 80.2% | viability, T/C (second compound 10 µM, first compound 0.1 µM): 81.8% | viability, T/C (second compound 10 µM, first compound 0.316 µM): 84.6% | viability, T/C (second compound 10 µM, first compound 1 µM): 91.5% | viability, T/C (second compound 10 µM, first compound 3.16 µM): 100% | viability, T/C (second compound 10 µM, first compound 10 µM): 89.8%

Source: PubChem BioAssay AID1963965 (Molecular Pharmacology Branch, DTP, NCI, 2024)
